Laboratory results reported in patent US8871452B2, “Methods for treatment of cardiovascular disease” (The Brigham and Women's Hospital, Inc., priority 2000, dated 2014).
“Also recorded” adds a separate entry of the source. Numbered stars: 1 amine (or outer) side, 2 acyl side, 3 side chain; on linkers, the order of the positions; unused ones are H or OH. Bridge positions count the residues as written; N and C are the ends. Square brackets hold non-standard residues; d marks the D form. Peptide text beside a SMILES is read from it. I, II: the chains in the order shown. Actinocin(9to1) = Cc1c2oc3c(C)ccc(C(=O)[*:1])c3nc-2c(C(=O)[*:2])c(N)c1=O; NMeV = CN[C@H](C(=O)O)C(C)C; Sar = CNCC(=O)O

Experiments:
[1] = tested on: Fit-1 mRNA expression; experiment: Northern blot of Fit-1 (T1/ST2) mRNA induction in cultured neonatal rat cardiac myocytes, with or without 8% cyclic mechanical strain; assay type: cell-based; conditions: for induction of Fit-1 mRNA expression by 8% mechanical strain: FIG. 4, applied during strain, actinomycin D 5 μg/ml (2 and 4 hours), cyclohexamide 10 μg/ml; for strain-induced induction of Fit-1 mRNA expression / Fit-1 mRNA expression in the absence of strain: FIG. 3, H2O2 100 uM, TIRON 10 mN; for strain-induced induction of Fit-1 mRNA expression: 8% mechanical strain; for induction of Fit-1 mRNA expression in the absence of mechanical strain: FIG. 2, 3 hours, Ang II 50 nM; for induction of Fit-1 mRNA expression in the absence of mechanical strain / rank order potency for the induction of Fit-1 mRNA expression / induction of Fit-1 mRNA expression, agent alone: IL-1β 10 ng/ml; for induction of Fit-1 mRNA expression in the absence of mechanical strain / rank order potency for the induction of T1/ST2 mRNA expression: PMA 200 nM; for rank order potency for the induction of Fit-1 mRNA expression: 8% strain; for rank order potency for the induction of Fit-1 mRNA expression / induction of Fit-1 mRNA expression, agent alone: PMA 100 ng/ml; for induction of Fit-1 mRNA expression, agent alone: no strain; for rank order potency for the induction of T1/ST2 mRNA expression: strain 8%
Description: The approach to mechanical stimulation used an apparatus that has multiple platens that contact the underside of silicone elastomer membranes to apply a spatially isotropic biaxial strain profile to the membrane (Schaffer J L, et al., J Orthop Res, 1993, 12:709-719; and U.S. Provisional Patent Application Ser. No. 60/144,134 filed on Jul. 16, 1999 entitled “AN APPARATUS FOR STUDYING MYOCARDIAL MECHANICAL OVERLOAD HYPERTROPHY AND USES THREFOR, by Richard T. Lee, and bearing and express mail no. EL110243781US). Six individual 78 mm membranes can be stretched at once with varying amplitudes of strain by controlling displacement of each platen with a stepper motor. Measured Green strains are accurate to ˜±0.25% at strains from 1-14% (Cheng G C, et al., Circ Res, 1997, 80:28-36; Brown T D, J Biomechanics, 2000, 33:3-14). Throughout this study, 8% biaxial strain was used.
Neonatal rat ventricular myocytes (NRVM) from 1-day old Sprague-Dawley rats were isolated by previously described methods (Springhorn J P, and Claycomb W C., Biochem J, 1989; 258:73-78; Arstall M A, et al., J Mol Cell Cardiol, 1998, 30:1019-25). NRVM were plated on the coated membrane dish at a density of 2,000,000 cells/dish in DMEM containing 7% FCS and incubated 24 h. Approximate cell confluence was 85-90%. NRVM were then made quiescent by washing with 10 ml of Hanks' balanced salt solution (HBSS, 138 mM NaCl, 5.3 mM KCl, 4.0 mM NaHCO3, 1.3 mM CaCl2, 0.5 mM MgCl2, 0.4 mM MgSO4, 0.4 mM KH2PO4, 0.3 mM Na2HPO4, 5.6 mM glucose; Life Technologies, Inc., Rockville, Md.) twice and incubating with 26 ml of DMEM containing 0.2% FCS for 48-72 hours.
The cDNA clones for differentially expressed genes were obtained by PCR using the GenBank sequences. Each clone was sequenced from both 5′ and 3′ ends to confirm identity. Positive elements in the DNA microarray were confirmed by Northern blot hybridization analysis in at least three independent experiments using three different sources of NRVMs. Total RNA was isolated by the guanidium thiocyanate and phenol chloroform method (Chomcyznski, et al., Anal. Biochem., 1987, 162:156-159). For Northern blotting, 15 μg RNA was loaded on a 1.0% agarose-formaldehyde gel (2.0 mol/l), transferred to a nylon membrane (Amersham Pharmacia Biotech AB, Piscataway, N.J.), and UV cross-linked with a UV Stratalinker (Stratagene, Inc., La Jolla, Calif.). Each probe was hybridized with ExpressHyb solution (Clontech Labs., Inc., Palo Alto, Calif.) at 68° C. for 1 hour. The membrane was washed with 2×SSC, 0.05% SDS solution for 30 to 40 minutes and three times at room temperature and 0.1×SSC, 0.1% SDS solution with continuous shaking at 50° C. for 40 minutes. The membrane was exposed to film at −80° C., and radiographs were scanned and analyzed with Optimas 5.0 software (Optimas Co./Media Cybernetics, Silver Springs, Md.). Densitometric units were normalized to the ethidium-stained 28S ribosomal subunit on the membrane.
T1/ST2 mRNA is induced by mechanical strain in cultured neonatal cardiac myocytes. Neonatal rat ventricular myocytes were isolated by collagenase digestion, plated on fibronectin-coated silicone membrane dishes at a density of 3.5 million cells/dish in 13 ml media as previously described (Yamamoto K, et al. J Biol Chem. 1999; 274:21840-21846). This technique yields cultures with ≧95% myocytes. Mechanical deformation was applied using a device that provides uniform biaxial cyclic strain as previously described (Yamamoto K, et al. J Biol Chem. 1999; 274:21840-21846). RNA was extracted (Qiagen) and Northern blotting was performed using as a probe a ^32P-labelled 600 bp PCR fragment specific to rat T1/ST2. Maximal induction occurs at 3 hours, is sustained for 9 hours and declines by 15 hours.

[2] = tested on: T1/ST2 mRNA; experiment: T1/ST2 mRNA induction in human adult vascular smooth muscle cells; assay type: cell-based
[3] = FIG. 9, interleukin-1 10 ng/ml, 1 and 3 hours

Cc1c2oc3c(C)ccc(C(=O)N[C@@H]4C(=O)N[C@H](C(C)C)C(=O)N5CCC[C@H]5C(=O)N(C)CC(=O)N(C)[C@@H](C(C)C)C(=O)O[C@@H]4C)c3nc-2c(C(=O)N[C@@H]2C(=O)N[C@H](C(C)C)C(=O)N3CCC[C@H]3C(=O)N(C)CC(=O)N(C)[C@@H](C(C)C)C(=O)O[C@@H]2C)c(N)c1=O [Actinomycin D, actinomycin D] (I: T[dV]P[Sar][NMeV] / II: T[dV]P[Sar][NMeV]; ester I:1-I:C, II:1-II:C; linker I:N-II:N via Actinocin(9to1))
induction of Fit-1 mRNA expression by 8% mechanical strain [1]: blocked

OO [H2O2, hydrogen peroxide]
strain-induced induction of Fit-1 mRNA expression [1]: blocks
Fit-1 mRNA expression in the absence of strain [1]: does not induce

CCCCCCCCCCCCCC(=O)O[C@@H]1[C@@H](C)[C@@]2(O)[C@@H](C=C(CO)C[C@]3(O)C(=O)C(C)=C[C@@H]23)[C@@H]2C(C)(C)[C@]12OC(C)=O [PMA]
induction of Fit-1 mRNA expression in the absence of mechanical strain [1]: associated with an induction
rank order potency for the induction of Fit-1 mRNA expression ([1]; FIG. 5): PMA>strain>IL-1β
induction of Fit-1 mRNA expression, agent alone ([1]; FIG. 5): strongest induction
rank order potency for the induction of T1/ST2 mRNA expression [1, 3]: PMA>strain>interleukin-1β; also recorded: PMA>strain>IL-1
induction of T1/ST2 mRNA [2]: not

O=S(=O)(O)c1cc(O)c(O)c(S(=O)(=O)O)c1 [TIRON]
strain-induced induction of Fit-1 mRNA expression [1]: slightly attenuated
Fit-1 mRNA expression in the absence of strain [1]: slightly attenuated

C[C@@H]1C[C@@H]([C@H](O)CC2CC(=O)NC(=O)C2)C(=O)[C@@H](C)C1 [cyclohexamide]
induction of Fit-1 mRNA expression by 8% mechanical strain [1]: blocked

IL-1β: interleukin-1β, cytokine
induction of T1/ST2 RNA, agent alone [1]: induce
induction of Fit-1 mRNA expression in the absence of mechanical strain [1]: associated with an induction
induction of Fit-1 by mechanical strain in the presence of IL-1β ([1]; FIG. 5, 8% strain plus IL-1β 10 ng/ml): not further increased
rank order potency for the induction of Fit-1 mRNA expression ([1]; FIG. 5): PMA>strain>IL-1β
induction of Fit-1 mRNA expression, agent alone ([1]; FIG. 5): induced
induction of T1/ST2 by mechanical strain in the presence of interleukin-1β ([1]; FIG. 9, 8% strain plus interleukin-1 10 ng/ml, 1 and 3 hours): not further increased
rank order potency for the induction of T1/ST2 mRNA expression [1, 3]: PMA>strain>interleukin-1β
rank order potency for the induction of T1/ST2 mRNA expression ([1]; FIG. 9, interleukin-1 10 ng/ml, 1 and 3 hours, listed as IL-1): PMA>strain>IL-1
induction of T1/ST2 mRNA in the presence of infection with control adenovirus ([1]; FIG. 10, interleukin-1 10 ng/ml, 4 hours): induced
induction of T1/ST2 mRNA [2]: induced

angiotensin II (DRVYIHPF; Angiotensin-2; UniProt P01019 25-32, looked up)
induction of Fit-1 mRNA expression in the absence of mechanical strain [1]: did not induce

tumor necrosis factor
induction of T1/ST2 mRNA [2]: not
